Patent US20190307843A1, “SINGLE DOSE METHODS FOR PREVENTING AND TREATING FUNGAL INFECTIONS” (Cidara Therapeutics, Inc., priority 2016, published 2019)
Read-outs that look alike come from different tables or passages of the source. Starred links: 1 amine or outer side, 2 acyl side, 3 side chain; linkers in the order of their positions; H or OH if unused. Positions of bridges follow the written chain, without caps; N, C: chain ends. Non-standard residues stand in square brackets, D forms with d. Residues, ends and D or L forms follow the SMILES beside them. *: point of attachment. Orn(4R-OH,5R-OCH2CH2NMe3+) = C[N+](C)(C)CCO[C@@H](N[*:3])[C@H](O)C[C@H](N[*:1])C(=O)[*:2]; pTerphenylCO(4''-OnC5H11) = CCCCCOc1ccc(-c2ccc(-c3ccc(C(=O)*)cc3)cc2)cc1; hTyr(3S-OH,4S-OH) = N[C@H](C(=O)O)[C@H](O)[C@@H](O)c1ccc(O)cc1; Pro(3S-OH,4S-Me) = C[C@H]1CN[C@H](C(=O)O)[C@H]1O; Hyp = O=C(O)[C@@H]1C[C@@H](O)CN1

Test system: Candida auris strains
Assay: Candida auris antifungal susceptibility testing (CLSI M27-A3), 38 strains
Type: cell-based
Settings: for MIC: Candidozyma auris, read-out: MIC

In the case of `CCCCCOc1ccc(-c2ccc(-c3ccc(C(=O)N[C@H]4C[C@@H](O)[C@@H](OCC[N+](C)(C)C)NC(=O)[C@@H]5[C@@H](O)[C@@H](C)CN5C(=O)[C@H]([C@@H](C)O)NC(=O)[C@H]([C@H](O)[C@@H](O)c5ccc(O)cc5)NC(=O)[C@@H]5C[C@@H](O)CN5C(=O)[C@H]([C@@H](C)O)NC4=O)cc3)cc2)cc1` [CD101] ({pTerphenylCO(4''-OnC5H11)}-[Orn(4R-OH,5R-OCH2CH2NMe3+)]T[Hyp][hTyr(3S-OH,4S-OH)]T[Pro(3S-OH,4S-Me)]; lactam 1-C), the MIC (24 h, strain 21 VCPI 512/P/14, 24 h) is reported as 0.25 µg/mL, the MIC (24 h, strain 22 VCPI 513/P/14, 24 h) is reported as 0.5 µg/mL and the MIC (24 h, strain 23 VCPI 514/P/14, 24 h) is reported as 0.5 µg/mL. The MIC (24 h, strain 24 VCPI 250/P/14, 24 h) was 0.25 µg/mL, the MIC (24 h, strain 25 VCPI 265/P/14, 24 h) was 16 µg/mL and the MIC (24 h, strain 26 VCPI 266/P/14, 24 h) was 0.5 µg/mL. For the same compound, the MIC (24 h, strain 27 VCPI 462/P/14, 24 h) was 16 µg/mL, the MIC (24 h, strain 28 VCPI 463/P/14, 24 h) was 0.125 µg/mL and the MIC (24 h, strain 29 VCPI 467/P/14, 24 h) was 0.25 µg/mL. The MIC (24 h, strain 30 VCPI 471a/P/14, 24 h) was 16 µg/mL, the MIC (24 h, strain 31 VCPI 478/P/14, 24 h) was 0.5 µg/mL and the MIC (24 h, strain 32 VCPI 518/P/14, 24 h) was 0.5 µg/mL. It also gave an MIC (24 h, strain 33 VCPI 550/P/14, 24 h) of 0.5 µg/mL, an MIC (24 h, strain 34 VCPI 714/P/14, 24 h) of 0.25 µg/mL and an MIC (24 h, strain 35 VCPI 717/P/14, 24 h) of 0.25 µg/mL. The MIC (24 h, strain 36 VCPI 1060/P/14, 24 h) was 0.25 µg/mL, the MIC (24 h, strain 37 VCPI 74/P/15, 24 h) was 0.25 µg/mL and the MIC (24 h, strain 38 VCPI 213/P/15, 24 h) was 0.25 µg/mL. It also gave an MIC (48 h, strain 1 VPCI 669/P/12, 48 h) of 0.5 µg/mL, an MIC (48 h, strain 2 VCPI 671/P/12, 48 h) of 0.5 µg/mL and an MIC (48 h, strain 3 VCPI 674/P/12, 48 h) of 0.25 µg/mL. The MIC (48 h, strain 4 VCPI 683/P/12, 48 h) was 0.5 µg/mL, the MIC (48 h, strain 5 VCPI 692/P/12, 48 h) was 0.5 µg/mL and the MIC (48 h, strain 6 VCPI 712/P/12, 48 h) was 0.25 µg/mL. It also gave an MIC (48 h, strain 7 VCPI 471/P/13, 48 h) of 0.5 µg/mL, an MIC (48 h, strain 8 VCPI 475/P/13, 48 h) of 0.5 µg/mL and an MIC (48 h, strain 9 VCPI 478/P/13, 48 h) of 0.25 µg/mL. The MIC (48 h, strain 10 VCPI 479/P/13, 48 h) was 0.25 µg/mL, the MIC (48 h, strain 11 VCPI 480/P/13, 48 h) was 0.25 µg/mL and the MIC (48 h, strain 12 VCPI 482/P/13, 48 h) was 0.25 µg/mL. For the same compound, the MIC (48 h, strain 13 VCPI 483/P/13, 48 h) was 0.25 µg/mL, the MIC (48 h, strain 14 VCPI 1130/P/13, 48 h) was 0.25 µg/mL and the MIC (48 h, strain 15 VCPI 1132/P/13, 48 h) was 0.25 µg/mL. For the same compound, the MIC (48 h, strain 16 VCPI 1133/P/13, 48 h) was > 16 µg/mL, the MIC (48 h, strain 17 VCPI 105/P/14, 48 h) was 0.25 µg/mL and the MIC (48 h, strain 18 VCPI 107/P/14, 48 h) was 0.125 µg/mL. The MIC (48 h, strain 19 VCPI 510/P/14, 48 h) was 0.25 µg/mL, the MIC (48 h, strain 20 VCPI 511/P/14, 48 h) was 0.25 µg/mL and the MIC (48 h, strain 21 VCPI 512/P/14, 48 h) was 0.25 µg/mL. For the same compound, the MIC (48 h, strain 22 VCPI 513/P/14, 48 h) was 0.5 µg/mL, the MIC (48 h, strain 23 VCPI 514/P/14, 48 h) was 0.5 µg/mL and the MIC (48 h, strain 24 VCPI 250/P/14, 48 h) was 0.25 µg/mL. For the same compound, the MIC (48 h, strain 25 VCPI 265/P/14, 48 h) was > 16 µg/mL, the MIC (48 h, strain 26 VCPI 266/P/14, 48 h) was 0.25 µg/mL and the MIC (48 h, strain 27 VCPI 462/P/14, 48 h) was > 16 µg/mL. For the same compound, the MIC (48 h, strain 28 VCPI 463/P/14, 48 h) was 0.125 µg/mL, the MIC (48 h, strain 29 VCPI 467/P/14, 48 h) was 0.25 µg/mL and the MIC (48 h, strain 30 VCPI 471a/P/14, 48 h) was > 16 µg/mL. The MIC (48 h, strain 31 VCPI 478/P/14, 48 h) was 1 µg/mL, the MIC (48 h, strain 32 VCPI 518/P/14, 48 h) was 0.5 µg/mL and the MIC (48 h, strain 33 VCPI 550/P/14, 48 h) was 1 µg/mL. For the same compound, the MIC (48 h, strain 34 VCPI 714/P/14, 48 h) was 0.25 µg/mL, the MIC (48 h, strain 35 VCPI 717/P/14, 48 h) was 0.25 µg/mL and the MIC (48 h, strain 36 VCPI 1060/P/14, 48 h) was 0.25 µg/mL. For the same compound, the MIC (48 h, strain 37 VCPI 74/P/15, 48 h) was 0.25 µg/mL, the MIC (48 h, strain 38 VCPI 213/P/15, 48 h) was 0.25 µg/mL and the “number of resistant isolates” value (of 38 C. auris isolates) was 4.
